In patent US7875601B2, “Cancer treatment with epothilones” (Novartis AG, priority 1998, dated 2011):
Entries after “also recorded” stand apart in the source; their conditions may differ.

System: human HCT-15 colon carcinoma
Experiment: Antitumor effect against s.c. transplanted HCT-15 tumors
Assay type: in vivo, female BALB/c nude mice
Source text: Human colorectal adenocarcinoma cell line HCT-15 (ATCC CCL 225) is from the American Type Culture Collection (Rockville, Md., USA), and the cells are cultivated in vitro as recommended by the supplier. HCT-15 is an epithelial-like cell line. (Cancer Res. 39: 1020-25 [1979]) that is multi-drug resistant by virtue of over-expression of P-glycoprotein (P-gp, gp170, MDR-1;Anticancer Res. 11: 1309-12 [1991]; J. Biol. Chem. 264: 18031-40 [1989]; Int. J. Cancer 1991; 49: 696-703 [1991]) and glutathione-dependent resistance mechanisms (Int. J. Cancer 1991; 49: 688-95 [1991]).
Female or male BALB/c nu/nu (nude) mice are kept under sterile conditions (10 to 12 mice per Type III cage) with free access to food and water. Mice weigh between 20 and 25 grams at the time of tumor implantation. Tumors are established by subcutaneous injection of cells (minimum 2×10^6 cells in 100 μl PBS or medium) in carrier mice (4-8 mice per cell line). The resulting tumors are serially passaged for a minimum of three consecutive transplantations prior to start of treatment. Tumor fragments (approx. 25 mg) are implanted s.c. into the left flank of animals with a 13-gauge trocar needle while the mice are exposed to Forene (Abbott, Switzerland) anesthesia.
Tumor growth and body weights are monitored once or twice weekly. All treatments are administered intravenously (i.v.) and are initiated when a mean tumor volume of approximately 100 to 250 mm^3 is attained, depending upon the tumor type. Tumor volumes are determined using the formula […] (see Cancer Chemother. Pharmacol. 24:148-154, [1989]). Treatments with epothilone B vary the dose and the frequency of administration. Comparator agents are administered according to previously determined optimal treatment regimens. In addition to presenting changes in tumor volumes over the course of treatment, antitumor activity is expressed as T/C % (mean increase of tumor volumes of treated animals divided by the mean increase of tumor volumes of control animals multiplied by 100). Tumor. regression (%) represents the smallest mean tumor volume compared to the mean tumor volume at the start of treatment, according to the formula Regression (%)=(1−Vend/Vstart)×100(Vend=final mean tumor volume, Vstart=mean tumor volume at the start of treatment. Any animals in which the tumor has reached a size exceeding approximately 1.5 to 2.5 cm^3 are sacrificed. Details can be found below.
Tumor volumes are used as the primary indicator of activity of antitumor agents used alone or in combination, and changes in body weights are measured as an indicator of treatment tolerability.

[1] = 4 mg/kg, i.v. once on day 14, mean ± SEM

C/C(=C\c1csc(C)n1)[C@@H]1C[C@@H]2O[C@]2(C)CCC[C@H](C)[C@H](O)[C@@H](C)C(=O)C(C)(C)[C@@H](O)CC(=O)O1 [epothilone B]
Regression (4 mg/kg, i.v. once on day 14): −61%
Survival (No. alive/total) (4 mg/kg, i.v. once on day 14): 8/8
T/C (4 mg/kg, i.v. once on day 14): tumor regressions; also recorded: Regression
% Body Weight Change [1]: 2 ± 2%
D Body Weight [1]: 0.4 ± 0.3 g
D Tumor Volume (mm^3) [1]: −97 ± 25 mm^3
mortalities due to treatment (single 4 mg/kg dose): No mortalities due to treatment
